Results taken from US5789439A, “Pharmaceutical use of forskolin derivatives” (Nippon Kayaku Kabushiki Kaisha, priority 1990, dated 1998).
Counter-ions that a name gives are not always drawn.

How the values were obtained:
Assay type in all cases: cell-based
[1] = system: NB-1 cells (a human neuroblastoma strain); assay: Differentiation inducing effect for NB-1 cells; set-up: key: -: none; ±: slight (<20%); +: medium (20-80%); ++: heavy (>80%); details: 4-hour incubation
Procedure: The differentiation inducing effect for the NB-1 cells (a human neuroblastoma strain: cell strain derived from neuroblastoma generated in infantile adrenal gland) was examined. The NB-1 cells were applied to a 96-well plate at a rate of 2×10^3 cells/well and precultured for 3 days. After attachment and growth were stabilized, the medium (RPMI 1640+10% fetal calf serum+SM.PC) was exchanged and a 10 μl solution of each test compound was added. Then, the cells were kept under constant observation to determine the occurrence or non-occurrence of differentiation. 2 mM (1.037 mg/ml) of dibutyryl cAMP dissolved in RPMI 1640 was used as positive control. NKH-477 and 14,15-dihydro-6-(3-dimethylaminopropionyl)forskolin hydrochloride were dissolved in a physiological saline. Forskolin was dissolved in DMSO and diluted with a physiological saline. The criterion for judgment of morphological change in differentiation is as follows. The figures in the parentheses are the ratio of the differentiated cells to the whole cells. It was confirmed that DMSO was totally devoid of differentiation inducing and promoting action at the concentrations used in this test.

[2] = system: collagen-induced aggregation of rabbit blood thrombocyte; assay: Collagen-induced platelet aggregation inhibition, rabbit platelet rich plasma; details: Oryctolagus cuniculus, Platelet; rabbit PRP, collagen 10 μg/ml; mean, n = 5; read-out: Platelet aggregation inhibitory action (IC50), Collagen-induced aggregation
Procedure: (§1) The platelet aggregation inhibitory action of NKH-477 was examined on collagen-induced aggregation and ADP-induced aggregation of rabbit blood thrombocyte. The male Japanese white rabbits (body weight: 2.4-2.8 kg, procured from Tokyo Experimental Animals Co., Ltd.) were divided into groups of 5. The rabbits were etherized and blood was collected from the carotid artery of each rabbit. A 3.8% sodium citrate solution (final concentration: 0.38%) was added to a portion of blood collected from each group of rabbits to obtain platelet rich plasma (PRP). The remaining portion of blood was centrifuged at 3,000 r.p.m. for 15 minutes to obtain platelet poor plasma (PPP). First, permeability of PRP and PPP was determined by using an aggregometer (RMA-31 mfd. by Rika Denki Kogyo K. K.) and set at 0% and 100%, respectively. Separately from the above operation, 250 μl of PRP was placed in a cuvette and after preliminary heating at 37° C. for 2 minutes, 20 μl of specimen was added and incubated under stirring for 2 minutes. Then 10 μl of ADP (Sigma, final conc.: 3×10^-6 M) or collagen (Hormon-Chemie, final conc.: 10 μg/ml) was added and the transmission rate was measured. The maximum transmission rate observed in this operation was termed as the maximum aggregation rate. Recording in this operation was conducted on an ink-written recorder (B-381L mfd. by Rika Denki Kogyo K. K.). NKH-477 was dissolved in a physiological saline to make concentrations of 10^-8 to 10^-5 M. Forskolin dissolved in ethanol was used as control.

[3] = system: ADP-induced aggregation of rabbit blood thrombocyte; assay: ADP-induced platelet aggregation inhibition, rabbit platelet rich plasma; details: Oryctolagus cuniculus, rabbit PRP, ADP 3×10^-6 M, mean, n = 5, read-out: Platelet aggregation inhibitory action (IC50), ADP-induced aggregation
Procedure: as §1, with “NKH-477 was dissolved in a physiological saline to make concentrations of 10^-8 to 10^-5 M. Forskolin dissolved in ethanol was used as control.” left out

IC50 [2] | IC50 [3] | SMILES | Effect (differentiation inducing) ([1]; Dose 1.56 μM) | Effect (differentiation inducing) ([1]; Dose 6.25 μM) | Effect (differentiation inducing) ([1]; Dose 25.00 μM) | Effect (differentiation inducing) ([1]; Dose 100.00 μM) | Effect (differentiation inducing) ([1]; Dose 2000.0 μM)
 |  | CC[C@@]1(C)CC(=O)[C@]2(O)[C@@]3(C)[C@@H](O)CCC(C)(C)[C@@H]3[C@H](OC(=O)CCN(C)C)[C@H](OC(C)=O)[C@@]2(C)O1 [14,15-dihydro-6-(3-dimethylaminopropionyl)forskolin hydrochloride] | ± (slight (<20%)) | ± (slight (<20%)) | ++ (heavy (>80%)) | ++ (heavy (>80%)) | 
 |  | CCCC(=O)Nc1ncnc2c1ncn2[C@@H]1O[C@@H]2COP(=O)(O)O[C@H]2[C@H]1OC(=O)CCC [Dibutyryl cAMP, dibutyryl cAMP, reference compound] |  |  |  |  | + (medium (20-80%))
3.09 µM | 6.03 µM | C=C[C@@]1(C)CC(=O)[C@]2(O)[C@@]3(C)[C@@H](O)CCC(C)(C)[C@@H]3[C@H](O)[C@H](OC(C)=O)[C@@]2(C)O1 [Forskolin] | - | - | ± (slight (<20%)) | + (medium (20-80%)) | 
